Laboratory results reported in patent US11207325B2, “Triazolopyrimidine compounds and uses thereof” (Novartis AG, priority 2014, dated 2021).

Tested on: H3K27 methylation in G401 cell
Test: ELISA (H3K27 methylation) assay
Format: cell-based
Conditions: Homo sapiens, G-401; ELISA Qualified assay (H3K27 methylation); read-out: (c) IC50 (μM), ELISA Qualified
Description: ELISA (H3K27 Methylation) Assay

Row | Structure (SMILES) | IC50
1 | CC(C)n1cc(-c2cnc(NCc3c(F)ccc4c3CCO4)n3cnnc23)c(C(F)(F)F)n1 [Example 148, N-((5-fluoro-2,3-dihydrobenzofuran-4-yl)methyl)-8-(1-isopropyl-3-(trifluoromethyl)-1H-pyrazol-4-yl)-[1,2,4]triazolo[4,3-c]pyrimidin-5-amine] | 0.0252 µM
2 | Cc1nn(C(C)C)c(C)c1-c1cnc(NCc2c(F)ccc3c2CCO3)n2cnnc12 [Example 151, N-((5-fluoro-2,3-dihydrobenzofuran-4-yl)methyl)-8-(1-isopropyl-3,5-dimethyl-1H-pyrazol-4-yl)-[1,2,4]triazolo[4,3-c]pyrimidin-5-amine] | 0.0086 µM
3 | O=C(c1ccc(-c2cnc(NCc3cccc4c3CCO4)n3cnnc23)cn1)N1CCCC1 [Example 80, (5-(5-(((2,3-dihydrobenzofuran-4-yl)methyl)amino)-[1,2,4]triazolo[4,3-c]pyrimidin-8-yl)pyridin-2-yl)(pyrrolidin-1-yl)methanone] | 0.132 µM
4 | CC(O)c1ccc(-c2cnc(NCc3cccc4c3CCO4)n3cnnc23)cn1 (stereo not shown) [Example 84, 1-(5-(5-(((2,3-dihydrobenzofuran-4-yl)methyl)amino)-[1,2,4]triazolo[4,3-c]pyrimidin-8-yl)pyridin-2-yl)ethanol] | 0.148 µM
5 | Cc1nn(C2CC2)c(C)c1-c1cnc(NCc2c(F)ccc3c2CCO3)n2cnnc12 [Example 179, 8-(1-cyclopropyl-3,5-dimethyl-1H-pyrazol-4-yl)-N-((5-fluoro-2,3-dihydrobenzofuran-4-yl)methyl)-[1,2,4]triazolo[4,3-c]pyrimidin-5-amine] | 0.0091 µM
6 | N#Cc1ccccc1-c1cnc(NCc2c(F)ccc3c2CCO3)n2cnnc12 [Example 121, 2-(5-(((5-fluoro-2,3-dihydrobenzofuran-4-yl)methyl)amino)-[1,2,4]triazolo[4,3-c]pyrimidin-8-yl)-benzonitrile] | 0.0142 µM
7 | COc1ncc(-c2cnc(NCc3cccc4c3CCO4)n3cnnc23)cn1 [Example 54, N-((2,3-dihydrobenzofuran-4-yl)methyl)-8-(2-methoxypyrimidin-5-yl)-[1,2,4]triazolo[4,3-c]pyrimidin-5-amine] | 0.144 µM
8 | CN(C)c1ncc(-c2cnc(NCc3cccc4c3CCO4)n3cnnc23)cn1 [Example 88, N-((2,3-dihydrobenzofuran-4-yl)methyl)-8-(2-(dimethylamino)pyrimidin-5-yl)-[1,2,4]triazolo[4,3-c]pyrimidin-5-amine] | 0.238 µM
9 | OC1CN(c2ccc(-c3cnc(NCc4cccc5c4CCO5)n4cnnc34)cn2)C1 [Example 126, 1-(5-(5-(((2,3-dihydrobenzofuran-4-yl)methyl)amino)-[1,2,4]triazolo[4,3-c]pyrimidin-8-yl)pyridin-2-yl)azetidin-3-ol] | 0.656 µM
10 | Fc1ccc2c(c1CNc1ncc(-c3cncnc3C(F)F)c3nncn13)CCO2 [Example 191, 8-(4-(difluoromethyl)pyrimidin-5-yl)-N-((5-fluoro-2,3-dihydrobenzofuran-4-yl)methyl)-[1,2,4]triazolo[4,3-c]pyrimidin-5-amine] | 0.0344 µM
11 | Cc1cnc(F)cc1-c1cnc(NCc2c(F)ccc3c2CCO3)n2cnnc12 [Example 183, N-((5-fluoro-2,3-dihydrobenzofuran-4-yl)methyl)-8-(2-fluoro-5-methylpyridin-4-yl)-[1,2,4]triazolo[4,3-c]pyrimidin-5-amine] | 0.0106 µM
12 | Cn1nccc1-c1cnc(NCc2cccc3c2CCO3)n2cnnc12 [Example 152, N-((2,3-dihydrobenzofuran-4-yl)methyl)-8-(1-methyl-1H-pyrazol-5-yl)-[1,2,4]triazolo[4,3-c]pyrimidin-5-amine] | 0.008 µM
13 | CN(C)C(=O)c1ccc(-c2cnc(NCc3c(F)ccc4c3CCO4)n3cnnc23)cc1 [Example 55, 4-(5-(((5-fluoro-2,3-dihydrobenzofuran-4-yl)methyl)amino)-[1,2,4]triazolo[4,3-c]pyrimidin-8-yl)-N,N-dimethylbenzamide] | 0.0131 µM
14 | CN(C)C(=O)c1ccc(-c2cnc(NCc3c(F)ccc4c3CCO4)n3cnnc23)cn1 [Example 140, 5-(5-(((5-fluoro-2,3-dihydrobenzofuran-4-yl)methyl)amino)-[1,2,4]triazolo[4,3-c]pyrimidin-8-yl)-N,N-dimethylpicolinamide] | 0.0263 µM
15 | Cc1cc(S(C)(=O)=O)ccc1-c1cnc(NCc2c(F)ccc3c2CCO3)n2cnnc12 [Example 128, N-((5-fluoro-2,3-dihydrobenzofuran-4-yl)methyl)-8-(2-methyl-4-(methylsulfonyl)phenyl)-[1,2,4]triazolo[4,3-c]pyrimidin-5-amine] | 0.0037 µM
16 | Cc1cc(-c2cnc(NCc3cccc4c3CCO4)n3cnnc23)cnc1N1CCN(C)CC1 [Example 36, N-((2,3-dihydrobenzofuran-4-yl)methyl)-8-(5-methyl-6-(4-methylpiperazin-1-yl)pyridin-3-yl)-[1,2,4]triazolo[4,3-c]pyrimidin-5-amine] | 0.0683 µM
17 | Cc1cn(-c2cnc(NCc3c(F)ccc4c3CCO4)n3cnnc23)c(C)n1 [Example 236, 8-(2,4-dimethyl-1H-imidazol-1-yl)-N-((5-fluoro-2,3-dihydrobenzofuran-4-yl)methyl)-[1,2,4]triazolo[4,3-c]pyrimidin-5-amine] | 0.0076 µM

Row | Structure (SMILES) | IC50
18 | CCOc1cc(C)c(-c2cnc(NCc3c(F)ccc4c3CCO4)n3cnnc23)cn1 [Example 196, 8-(6-ethoxy-4-methylpyridin-3-yl)-N-((5-fluoro-2,3-dihydrobenzofuran-4-yl)methyl)-[1,2,4]triazolo[4,3-c]pyrimidin-5-amine] | 0.0263 µM
19 | Cc1cncc(-c2cnc(NCc3c(F)ccc4c3CCO4)n3cnnc23)c1 [Example 232, N-((5-fluoro-2,3-dihydrobenzofuran-4-yl)methyl)-8-(5-methylpyridin-3-yl)-[1,2,4]triazolo[4,3-c]pyrimidin-5-amine] | 0.0133 µM
20 | Cn1cc(-c2cnc(NCc3cccc4c3CCO4)n3cnnc23)cn1 [Example 25, N-((2,3-dihydrobenzofuran-4-yl)methyl)-8-(1-methyl-1H-pyrazol-4-yl)-[1,2,4]triazolo[4,3-c]pyrimidin-5-amine] | 0.406 µM
21 | Cc1nn(C)c(C)c1-c1cnc(NCc2c(F)ccc3c2CCO3)n2cnnc12 [Example 132, N-((5-fluoro-2,3-dihydrobenzofuran-4-yl)methyl)-8-(1,3,5-trimethyl-1H-pyrazol-4-yl)-[1,2,4]triazolo[4,3-c]pyrimidin-5-amine] | 0.0077 µM
22 | OCCn1cc(-c2cnc(NCc3cccc4c3CCO4)n3cnnc23)cn1 [Example 34, 2-(4-(5-(((2,3-dihydrobenzofuran-4-yl)methyl)amino)-[1,2,4]trizaolo[4,3-c]pyrimidin-8-yl)-1H-pyrazol-1-yl)ethanol] | 1.95 µM
23 | COc1cc(-c2cnc(NCc3c(F)ccc4c3CCO4)n3cnnc23)ccn1 [Example 145, N-((5-fluoro-2,3-dihydrobenzofuran-4-yl)methyl)-8-(2-methoxypyridin-4-yl)-[1,2,4]triazolo[4,3-c]pyrimidin-5-amine] | 0.0052 µM
24 | O=CN1CCN(c2ccc(-c3cnc(NCc4cccc5c4CCO5)n4cnnc34)cn2)CC1 [Example 134, 4-(5-(5-(((2,3-dihydrobenzofuran-4-yl)methyl)amino)-[1,2,4]triazolo[4,3-c]pyrimidin-8-yl)pyridin-2-yl)piperazine-1-carbaldehyde] | 0.165 µM
25 | Cc1ccc(-c2cnc(NCc3c(F)ccc4c3CCO4)n3cnnc23)c(C(F)F)n1 [Example 201, 8-(2-(difluoromethyl)-6-methylpyridin-3-yl)-N-((5-fluoro-2,3-dihydrobenzofuran-4-yl)methyl)-[1,2,4]triazolo[4,3-c]pyrimidin-5-amine] | 0.0036 µM
26 | Cn1ncc(-c2cnc(NCc3c(F)ccc4c3CCO4)n3cnnc23)c1CO [Example 227, (4-(5-(((5-fluoro-2,3-dihydrobenzofuran-4-yl)methyl)amino)-[1,2,4]triazolo[4,3-c]pyrimidin-8-yl)-1-methyl-1H-pyrazol-5-yl)methanol] | 0.0091 µM
27 | CN(C)C(=O)c1cccc(-c2cnc(NCc3cccc4c3CCO4)n3cnnc23)c1 [Example 43, 3-(5-(((2,3-dihydrobenzofuran-4-yl)methyl)amino)-[1,2,4]triazolo[4,3-c]pyrimidin-8-yl)-N,N-dimethylbenzamide] | 0.247 µM
28 | Fc1ccc2c(c1CNc1ncc(-c3ccnnc3)c3nncn13)CCO2 [Example 202, N-((5-fluoro-2,3-dihydrobenzofuran-4-yl)methyl)-8-(pyridazin-4-yl)-[1,2,4]triazolo[4,3-c]pyrimidin-5-amine] | 0.0206 µM
29 | Cc1nn(C(C)C)c(C)c1-c1cnc(NCc2cccc3c2CCO3)n2cnnc12 [Example 153, N-((2,3-dihydrobenzofuran-4-yl)methyl)-8-(1-isopropyl-3,5-dimethyl-1H-pyrazol-4-yl)-[1,2,4]triazolo[4,3-c]pyrimidin-5-amine] | 0.0073 µM
30 | COc1ccc(-c2cnc(NCc3c(F)ccc4c3CCO4)n3cnnc23)cn1 [Example 142, N-((5-fluoro-2,3-dihydrobenzofuran-4-yl)methyl)-8-(6-methoxypyridin-3-yl)-[1,2,4]triazolo[4,3-c]pyrimidin-5-amine] | 0.0043 µM
31 | O=S(=O)(NCCO)c1ccc(-c2cnc(NCc3cccc4c3CCO4)n3cnnc23)cc1 [Example 40] | 1.34 µM
32 | Cc1cc(C2CC2)ncc1-c1cnc(NCc2c(F)ccc3c2CCO3)n2cnnc12 [Example 173, 8-(6-cyclopropyl-4-methylpyridin-3-yl)-N-((5-fluoro-2,3-dihydrobenzofuran-4-yl)methyl)-[1,2,4]triazolo[4,3-c]pyrimidin-5-amine] | 0.0152 µM
33 | CCNC(=O)c1ccc(-c2cnc(NCc3cccc4c3CCO4)n3cnnc23)cn1 [Example 114, 5-(5-(((2,3-dihydrobenzofuran-4-yl)methyl)amino)-[1,2,4]triazolo[4,3-c]pyrimidin-8-yl)-N-ethylpicolinamide] | 1.98 µM
34 | CC1(C)COC(c2cncc(-c3cnc(NCc4cccc5c4CCO5)n4cnnc34)c2)=N1 [Example 90, N-((2,3-dihydrobenzofuran-4-yl)methyl)-8-(5-(4,4-dimethyl-4,5-dihydrooxazol-2-yl)pyridin-3-yl)-[1,2,4]triazolo[4,3-c]pyrimidin-5-amine] | 0.675 µM
